Source: US8269000B2, “Substituted pyrimidine and triazine compounds” (Gruenenthal GmbH, priority 2008, dated 2012)

Target: T1, rat B1R (Rattus norvegicus, UniProt P97583)
T1 construct: expressed in transfected cells; host or cells: CHO K1 cells
T1 sequence (P97583 1-337): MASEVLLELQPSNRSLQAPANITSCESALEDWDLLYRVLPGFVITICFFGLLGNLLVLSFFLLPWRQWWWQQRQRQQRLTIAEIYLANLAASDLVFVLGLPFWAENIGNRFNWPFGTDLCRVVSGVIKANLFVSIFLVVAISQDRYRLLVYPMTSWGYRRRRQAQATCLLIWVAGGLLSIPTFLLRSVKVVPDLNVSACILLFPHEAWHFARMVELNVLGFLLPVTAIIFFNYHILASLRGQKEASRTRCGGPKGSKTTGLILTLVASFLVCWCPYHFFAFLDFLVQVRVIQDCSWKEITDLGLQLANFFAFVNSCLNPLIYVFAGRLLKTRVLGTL
Assay: FLIPR Ca2+ functional study on bradykinin receptor 1 (rB1R CHO K1 cells)
Assay type: cell-based
Settings: % inhibition rat B1R at 10 μM, 10 µM
Summary of the method: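 CHO K1 cells stably expressing human or rat B1R were loaded with Fluo-4 and read on FLIPR (ex 488/em 540 nm, peak counts). Test compound (10 μM, or a concentration range for IC50) was added first for % activation versus control agonist; after 10-20 min, EC80 Lys-Des-Arg9-bradykinin (human) or Des-Arg9-bradykinin (rat) was added, giving % inhibition of maximum. n=2-3, N≥2.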

% inh. (rat B1R) 10 μM [%] | SMILES
79 | COc1cc(C)c(S(=O)(=O)N(C)CCOc2nccc(N(C)CCN3CCC(c4ccccc4)(N(C)C)CC3)n2)c(C)c1 [G_CC-098, N-[2-[4-[2-(4-dimethylamino-4-phenyl-piperidin-1-yl)-ethyl-methyl-amino]-pyrimidin-2-yl]oxy-ethyl]-4-methoxy-N,2,6-trimethyl-benzenesulfonic acid amide]

Same assay, conditions: CHO-K1, % inhibition rat B1R at 10 μM, read-out: % inh. (rat B1R) 10 μM

SMILES | inhibition at 10 µM [%]
COc1cc(C)c(S(=O)(=O)N2CCC[C@@H]2COc2nccc(N3CCCC3Cc3ccccn3)n2)c(C)c1 (stereo partly drawn) [G_CC-084, 2-[[(2R)-1-[(4-methoxy-2,6-dimethyl-phenyl)sulfonyl]-pyrrolidin-2-yl]-methoxy]-4-[2-(pyridin-2-yl-methyl)-pyrrolidin-1-yl]-pyrimidine] | 83
COc1cc(C)c(S(=O)(=O)N2CCC[C@H]2COc2nccc(N3CCC(c4nc(-c5ccncc5)no4)CC3)n2)c(C)c1 [G_CC-085, 5-[1-[2-[[(2S)-1-[(4-methoxy-2,6-dimethyl-phenyl)sulfonyl]-pyrrolidin-2-yl]-methoxy]-pyrimidin-4-yl]-piperidin-4-yl]-3-pyridin-4-yl-[1,2,4]oxadiazole] | 101
CCCCC1(N(C)C)CCN(c2ccnc(OC[C@@H]3CCCN3S(=O)(=O)c3c(C)cc(OC)cc3C)n2)CC1 [G_CC-087, [4-butyl-1-[2-[[(2S)-1-[(4-methoxy-2,6-dimethyl-phenyl)sulfonyl]-pyrrolidin-2-yl]-methoxy]-pyrimidin-4-yl]-piperidin-4-yl]-dimethyl-amine] | 101
CCCCC1(N(C)C)CCN(c2ccnc(OCCN(C)S(=O)(=O)c3c(C)cc(OC)cc3C)n2)CC1 [G_CC-089, N-[2-[4-(4-butyl-4-dimethylamino-piperidin-1-yl)-pyrimidin-2-yl]oxy-ethyl]-4-methoxy-N,2,6-trimethyl-benzenesulfonic acid amide] | 93
COc1cc(C)c(S(=O)(=O)N2CCC[C@H]2COc2nccc(N(C)CCN3CCC(c4ccccc4)(N4CCCC4)CC3)n2)c(C)c1 [G_CC-091, [2-[[(2S)-1-[(4-methoxy-2,6-dimethyl-phenyl)sulfonyl]-pyrrolidin-2-yl]-methoxy]-pyrimidin-4-yl]-methyl-[2-(4-phenyl-4-pyrrolidin-1-yl-piperidin-1-yl)-ethyl]-amine] | 101
CCCCC1(N(C)C)CCN(CCN(C)c2ccnc(OC[C@@H]3Cc4ccccc4N3S(=O)(=O)c3c(C)cc(OC)cc3C)n2)CC1 [G_CC-097, 2-(4-butyl-4-dimethylamino-piperidin-1-yl)-ethyl-[2-[[(2S)-1-[(4-methoxy-2,6-dimethyl-phenyl)sulfonyl]-2,3-dihydro-1H-indol-2-yl]-methoxy]-pyrimidin-4-yl]-methyl-amine] | 101
COc1cc(C)c(S(=O)(=O)N(C)CCOc2nccc(N(C)CCCN3CCC(c4ccccc4)(N(C)C)CC3)n2)c(C)c1 [G_CC-100, N-[2-[4-[3-(4-dimethylamino-4-phenyl-piperidin-1-yl)-propyl-methyl-amino]-pyrimidin-2-yl]oxy-ethyl]-4-methoxy-N,2,6-trimethyl-benzenesulfonic acid amide] | 89
COc1cc(C)c(S(=O)(=O)N2CCCCC2COc2nccc(N3[C@@H]4CC[C@H]3CC(Oc3cccnc3)C4)n2)c(C)c1 (stereo partly drawn) [G_CC-105, (1S,5R)-8-[2-[[1-[(4-methoxy-2,6-dimethyl-phenyl)sulfonyl]-piperidin-2-yl]-methoxy]-pyrimidin-4-yl]-3-pyridin-3-yloxy-8-azabicyclo[3.2.1]octane] | 101

Further lines, results first:

inhibition at 10 µM [%] | SMILES
105 | COc1cc(C)c(S(=O)(=O)N2CCC[C@H]2COc2nccc(N3CCC(OCCN4CCCC4)(c4cccc(F)c4)CC3)n2)c(C)c1 [G_CC-086, 4-[4-(3-fluorophenyl)-4-(2-pyrrolidin-1-yl-ethoxy)-piperidin-1-yl]-2-[[(2S)-1-[(4-methoxy-2,6-dimethyl-phenyl)sulfonyl]-pyrrolidin-2-yl]-methoxy]-pyrimidine]
100 | COc1cc(C)c(S(=O)(=O)N2CCC[C@H]2COc2nccc(N(C)CCN3CCC(c4ccccc4)(N(C)C)CC3)n2)c(C)c1 [G_CC-088, 2-(4-dimethylamino-4-phenyl-piperidin-1-yl)-ethyl-[2-[[(2S)-1-[(4-methoxy-2,6-dimethyl-phenyl)sulfonyl]-pyrrolidin-2-yl]-methoxy]-pyrimidin-4-yl]-methyl-amine]
85 | COc1cc(C)c(S(=O)(=O)N2c3ccccc3C[C@H]2COc2nccc(N3CCC(Oc4cnccn4)CC3)n2)c(C)c1 [G_CC-092, (2S)-1-[(4-methoxy-2,6-dimethyl-phenyl)sulfonyl]-2-[[4-(4-pyrazin-2-yloxy-piperidin-1-yl)-pyrimidin-2-yl]oxy-methyl]-2,3-dihydro-1H-indole]
91 | CCCCC1(N(C)C)CCN(c2ccnc(OC[C@@H]3Cc4ccccc4N3S(=O)(=O)c3c(C)cc(OC)cc3C)n2)CC1 [G_CC-093, [4-butyl-1-[2-[[(2S)-1-[(4-methoxy-2,6-dimethyl-phenyl)sulfonyl]-2,3-dihydro-1H-indol-2-yl]-methoxy]-pyrimidin-4-yl]-piperidin-4-yl]-dimethyl-amine]
102 | COc1cc(C)c(S(=O)(=O)N2c3ccccc3C[C@H]2COc2nccc(N(C)CCN3CCC(c4ccccc4)(N(C)C)CC3)n2)c(C)c1 [G_CC-094, 2-(4-dimethylamino-4-phenyl-piperidin-1-yl)-ethyl-[2-[[(2S)-1-[(4-methoxy-2,6-dimethyl-phenyl)sulfonyl]-2,3-dihydro-1H-indol-2-yl]-methoxy]-pyrimidin-4-yl]-methyl-amine]
101 | COc1cc(C)c(S(=O)(=O)N2c3ccccc3C[C@H]2COc2nccc(N(C)CCN3CCC(c4ccccc4)(N4CCCC4)CC3)n2)c(C)c1 [G_CC-096, [2-[[(2S)-1-[(4-methoxy-2,6-dimethyl-phenyl)sulfonyl]-2,3-dihydro-1H-indol-2-yl]-methoxy]-pyrimidin-4-yl]-methyl-[2-(4-phenyl-4-pyrrolidin-1-yl-piperidin-1-yl)-ethyl]-amine]
105 | COc1cc(C)c(S(=O)(=O)N2CCCCC2COc2nccc(N(C)CCCN3CCC(c4ccccc4)(N(C)C)CC3)n2)c(C)c1 (stereo not drawn) [G_CC-101, 3-(4-dimethylamino-4-phenyl-piperidin-1-yl)-propyl-[2-[[1-[(4-methoxy-2,6-dimethyl-phenyl)sulfonyl]-piperidin-2-yl]-methoxy]-pyrimidin-4-yl]-methyl-amine]
93 | COc1cc(C)c(S(=O)(=O)N2CCCCC2COc2nccc(N3CCC(c4nc(-c5ccncc5)no4)CC3)n2)c(C)c1 (stereo not drawn) [G_CC-103, 5-[1-[2-[[1-[(4-methoxy-2,6-dimethyl-phenyl)sulfonyl]-piperidin-2-yl]-methoxy]-pyrimidin-4-yl]-piperidin-4-yl]-3-pyridin-4-yl-[1,2,4]oxadiazole]
101 | COc1cc(C)c(S(=O)(=O)N2CCCCC2COc2nccc(N3CCC(c4cccc(F)c4)(N4CCN(C)CC4)CC3)n2)c(C)c1 (stereo not drawn) [G_CC-104, 4-[4-(3-fluorophenyl)-4-(4-methyl-piperazin-1-yl)-piperidin-1-yl]-2-[[1-[(4-methoxy-2,6-dimethyl-phenyl)sulfonyl]-piperidin-2-yl]-methoxy]-pyrimidine]
